Assay results taken from patent US9381142B2, “Olfactory adaptation and cross-adapting agents to reduce the perception of body odors” (Monell Chemical Senses Center, priority 2002, dated 2016).

Experiments:
[1] = tested on: male stress-derived axillary odor; experiment: Cross-adaptation of male stress-derived axillary odor (odor panel, magnitude estimation of perceived intensity); type: in vivo, human; conditions: for Magnitude of Reduction of Intensity of Male Stress-Derived Odor (MSDO), Males: male stress-derived odor perceived by men; for Magnitude of Reduction of Intensity of Male Stress-Derived Odor (MSDO), Females: male stress-derived odor perceived by women
Description: (§1) The procedure relies upon an individual constantly sniffing an adapting agent, such as a fragrance, and occasionally a test odorant. Perceived intensity of the test odorant is obtained by using psychophysical, magnitude-estimation procedures. These perceived intensities are obtained every 30 seconds over the test period, and are then compared with baseline perceived intensities obtained before the individual began sniffing the adapting agent. Throughout the testing we observe adaptation to the adapting agent. Results during trials with an inserted test odorant, such as the axillary odor used here, are believed to be reasonably predictive. If the perceived intensity of the test odorant decreases during the test, then the adapting agent cross-adapts the test odorant and becomes a cross-adapting agent. If the cross-adapting agent is itself not offensive, then the cross-adapting agent becomes a candidate for use in formulations in consumer products to ameliorate malodors, such as axillary odor or fecal/urine odors, and odors related to the female menstrual cycle.
(§2) Collection of secretions: Apocrine secretions obtained under stressed conditions provided the axillary odor that was used as the test odorant to evaluate the effectiveness of various adapting agents. Secretions were obtained from males (ages 20 to 60 years) and females (ages 20 to 40 years) in good health. […] Volunteers prepared their axillae for collection of apocrine secretions by refraining from deodorant use for 3 days and shaving their axillae the morning of the collection day.
(§3) Volunteers were rested in a supine position. The axillary regions were washed with isopropanol-soaked pads and injected intradermally with 1:10,000 adrenalin (in physiologic saline). This injection stimulated the secretion of apocrine gland secretions, which were collected in 10 μl pipettes, passed into 0.25 ml Eppendorf tubes, and stored on ice (or frozen for longer storage). The amount of secretion collected varied greatly with the individual subject (≦10 μl). The apocrine secretions from each volunteer were combined by consecutively washing each Eppendorf tube with 2×300 μl of doubly distilled water. This aqueous-apocrine fluid was transferred to a 5 ml round-bottomed flask for hydrolysis. X-N. Zeng, J. J. Leyden, J. G. Brand, A. I. Spielman, K. J. McGinley, G. Preti, An Investigation of Human Apocrine Gland Secretion for Axillary Odor Precursors, 18 J. Chem. Ecol. 1039-1055 (1992); X-N. Zeng, J. J. Leyden, A. I. Spielman and G. Preti Analysis of the characteristic human female axillary odors: Qualitative comparison to males. 22 J. Chem. Ecol. 237-257 (1996).
(§4) Production of odor: To produce quantities of stress-derived axillary odor for testing purposes, we hydrolyzed the apocrine secretion. The aqueous solution was refluxed for 20 min with 0.5 ml, 5% aqueous sodium hydroxide under a stream of nitrogen. The mixture was allowed to cool to room temperature, and then it was cooled in ice prior to being acidified with 6 N HCl to pH 2. The resulting axillary odor developed in the reaction mixture upon acidification was used as the test odorant. The axillary odors generated by this in vitro technique are analogous to the malodors produced by stressed individuals.
Sixteen (16) individuals (8 of each gender) served on an odor panel. Subjects ranged in age from 22 to 55 years (mean 32.7±10.6 s.d.), were not pregnant (by verbal report), and were all non-smokers. All panel members were screened for adequate use of magnitude estimation (some people have difficulties maintaining a ratio scale, i.e., when an odorant is half as strong as the previous, these people fail to provide a number that is half the previous estimate) and further trained in its use during 2-3 training sessions. All 16 subjects were tested with samples of male malodor compared to each of the potential cross-adapting agents. […]

[2] = tested on: female stress-derived axillary odor; experiment: Cross-adaptation of female stress-derived axillary odor (odor panel, magnitude estimation of perceived intensity); type: in vivo, human; conditions: for Magnitude of Reduction of Intensity of Female Stress-Derived Odor (FSDO), Males: female stress-derived odor perceived by men; for Magnitude of Reduction of Intensity of Female Stress-Derived Odor (FSDO), Females: female stress-derived odor perceived by women
Description: as §1, §2, §3, §4
A separate panel of 24 subjects (12 males and 12 females) tested samples of female stress-derived axillary odor with potential cross-adapting agents, some of which were not included in Example 1 above. Some of the subjects assessing the effectiveness of cross-adaptation of male stress-derived axillary odor were also used in the experiment with female secretions. However, these two experiments were treated as independent events. All panel members were screened for adequate use of magnitude estimation and further trained in its use during two to three training sessions. […]

[3] = listed as E-isomer 3-methyl-2-pentenoic acid ethyl ester
Note: key: best: Best = Superior Cross-Adaptation; good: Good = Adequate Cross-Adaptation; poor: Poor = Ineffective Cross-Adaptation.

CCCCCC(C)=CC(=O)OCC (single isomer, unassigned) [E-, Z-isomers (3:1) of 3-methyl-2-octenoic acid ethyl esters, 3-methyl-2-octenoic acid ethyl esters]
Magnitude of Reduction of Intensity of Male Stress-Derived Odor (MSDO), Males [1]: best
Magnitude of Reduction of Intensity of Male Stress-Derived Odor (MSDO), Females [1]: best
Magnitude of Reduction of Intensity of Female Stress-Derived Odor (FSDO), Males [2]: best
Magnitude of Reduction of Intensity of Female Stress-Derived Odor (FSDO), Females [2]: best

CCOC(=O)C=C(C)CC (single isomer, unassigned) [E-isomer of 3-methyl-2-pentenoic acid ethyl ester, 3-methyl-2-pentenoic acid ethyl ester]
Magnitude of Reduction of Intensity of Male Stress-Derived Odor (MSDO), Males [1]: good
Magnitude of Reduction of Intensity of Male Stress-Derived Odor (MSDO), Males [1, 3]: good
Magnitude of Reduction of Intensity of Male Stress-Derived Odor (MSDO), Females [1]: good
Magnitude of Reduction of Intensity of Male Stress-Derived Odor (MSDO), Females [1, 3]: good
Magnitude of Reduction of Intensity of Female Stress-Derived Odor (FSDO), Males [2]: poor
Magnitude of Reduction of Intensity of Female Stress-Derived Odor (FSDO), Females [2]: poor

CCOC(=O)C=C(C)CC (single isomer, unassigned) [Z-isomer of 3-methyl-2-pentenoic acid ethyl ester, 3-methyl-2-pentenoic acid ethyl ester]
Magnitude of Reduction of Intensity of Male Stress-Derived Odor (MSDO), Males [1]: best
Magnitude of Reduction of Intensity of Male Stress-Derived Odor (MSDO), Males ([1]; listed as Z-isomer 3-methyl-2-pentenoic acid ethyl ester): best
Magnitude of Reduction of Intensity of Male Stress-Derived Odor (MSDO), Females [1]: poor
Magnitude of Reduction of Intensity of Female Stress-Derived Odor (FSDO), Males [2]: poor
Magnitude of Reduction of Intensity of Female Stress-Derived Odor (FSDO), Females [2]: poor

CC(=O)OC1CCCCC1C(C)(C)C (centres unmarked) [Agrumex, 2-tert-butyl cyclohexyl acetate]
Magnitude of Reduction of Intensity of Male Stress-Derived Odor (MSDO), Males [1]: good
Magnitude of Reduction of Intensity of Male Stress-Derived Odor (MSDO), Females [1]: poor
Magnitude of Reduction of Intensity of Female Stress-Derived Odor (FSDO), Males [2]: poor
Magnitude of Reduction of Intensity of Female Stress-Derived Odor (FSDO), Females [2]: best

O=C1CCCCCCCC=CCCCCCCO1 [Ambrettolide, oxacycloheptadec-10-en-2-one]
Magnitude of Reduction of Intensity of Male Stress-Derived Odor (MSDO), Males [1]: poor
Magnitude of Reduction of Intensity of Male Stress-Derived Odor (MSDO), Females [1]: poor
Magnitude of Reduction of Intensity of Female Stress-Derived Odor (FSDO), Males [2]: poor
Magnitude of Reduction of Intensity of Female Stress-Derived Odor (FSDO), Females [2]: good

COc1ccc(C=O)cc1 [Anisic Aldehyde, 4-methoxybenzaldehyde]
Magnitude of Reduction of Intensity of Female Stress-Derived Odor (FSDO), Males [2]: best
Magnitude of Reduction of Intensity of Female Stress-Derived Odor (FSDO), Females [2]: good

CCCCCCCC1CCC(=O)O1 (centres unmarked) [C14 Aldehyde, gamma-undecalactone]
Magnitude of Reduction of Intensity of Male Stress-Derived Odor (MSDO), Males [1]: good
Magnitude of Reduction of Intensity of Male Stress-Derived Odor (MSDO), Females [1]: poor
Magnitude of Reduction of Intensity of Female Stress-Derived Odor (FSDO), Males [2]: good
Magnitude of Reduction of Intensity of Female Stress-Derived Odor (FSDO), Females [2]: good

CO[C@]1(C)CC[C@@]23C[C@@H]1C(C)(C)[C@@H]2CC[C@H]3C [CEDRAMBER ®, cedryl methyl ether]
Magnitude of Reduction of Intensity of Male Stress-Derived Odor (MSDO), Males [1]: good
Magnitude of Reduction of Intensity of Male Stress-Derived Odor (MSDO), Females [1]: poor
Magnitude of Reduction of Intensity of Female Stress-Derived Odor (FSDO), Males [2]: good
Magnitude of Reduction of Intensity of Female Stress-Derived Odor (FSDO), Females [2]: good

Cc1ccc2c(c1)OCC(=O)CO2 [Calone 1951, 7-methyl-314-dihydro-2H-1,5-benzodioxepin-3-one]
Magnitude of Reduction of Intensity of Female Stress-Derived Odor (FSDO), Males [2]: good
Magnitude of Reduction of Intensity of Female Stress-Derived Odor (FSDO), Females [2]: good

COC(C=C(C)CCC=C(C)C)OC [Citrylal, Octa-2,6-dien; 1,1-dimethoxy-3-7-dimethyl]
Magnitude of Reduction of Intensity of Male Stress-Derived Odor (MSDO), Males [1]: best
Magnitude of Reduction of Intensity of Male Stress-Derived Odor (MSDO), Females [1]: good

C/C=C/C(=O)OC(C)C1CCCCC1 (centres unmarked) [Datilat, Cyclohexyl methyl carbinol crotonate]
Magnitude of Reduction of Intensity of Male Stress-Derived Odor (MSDO), Males [1]: poor
Magnitude of Reduction of Intensity of Male Stress-Derived Odor (MSDO), Females [1]: poor

CCCCCC(C)=CC(=O)OCC [E-isomer of 3-methyl-2-octenoic acid ethyl ester, 3-methyl-2-octenoic acid ethyl ester]
Magnitude of Reduction of Intensity of Female Stress-Derived Odor (FSDO), Males [2]: good
Magnitude of Reduction of Intensity of Female Stress-Derived Odor (FSDO), Females [2]: poor

CCOc1cc(C=O)ccc1O [Ethyl Vanillin, 3-Ethoxy-4-hydroxybenzaldehyde]
Magnitude of Reduction of Intensity of Female Stress-Derived Odor (FSDO), Males [2]: best
Magnitude of Reduction of Intensity of Female Stress-Derived Odor (FSDO), Females [2]: poor

COC(=O)c1c(C)cc(O)c(C)c1O [Evernyl, methyl 2,4-dihydroxy-3,6-dimethylbenzoate]
Magnitude of Reduction of Intensity of Female Stress-Derived Odor (FSDO), Males [2]: poor
Magnitude of Reduction of Intensity of Female Stress-Derived Odor (FSDO), Females [2]: good

O=C1CCCC=CCCCCCCCCCC1 [GLOBANONE ®, cyclohexadecen-5-one-1]
Magnitude of Reduction of Intensity of Female Stress-Derived Odor (FSDO), Males [2]: good
Magnitude of Reduction of Intensity of Female Stress-Derived Odor (FSDO), Females [2]: poor

CC(C=O)Cc1ccc(C(C)(C)C)cc1 (stereo not drawn) [Lilial, 4-(1,1-dimethylethyl)-alpha-methylbenzenepropanal]
Magnitude of Reduction of Intensity of Female Stress-Derived Odor (FSDO), Males [2]: good
Magnitude of Reduction of Intensity of Female Stress-Derived Odor (FSDO), Females [2]: poor

CC(C)(O)CCCC1=CCC(C=O)CC1 (centres unmarked) [Lyral, 4-(4-hydroxy-4-methylpentyl)-3-cyclohexenE-1-carboxaldehyde]
Magnitude of Reduction of Intensity of Female Stress-Derived Odor (FSDO), Males [2]: good
Magnitude of Reduction of Intensity of Female Stress-Derived Odor (FSDO), Females [2]: poor

Cc1cccc(CC(C)(C)CO)c1 [MAJANTOL ®, 2,2-dimethyl-3-(methylphenyl)propanol]
Magnitude of Reduction of Intensity of Female Stress-Derived Odor (FSDO), Males [2]: good
Magnitude of Reduction of Intensity of Female Stress-Derived Odor (FSDO), Females [2]: poor

CC(C)C1CCC(C(C)O)CC1 (centres unmarked) [Mugetanol, 1-(4-isopropylcyclohexyl)ethanol]
Magnitude of Reduction of Intensity of Male Stress-Derived Odor (MSDO), Males [1]: good
Magnitude of Reduction of Intensity of Male Stress-Derived Odor (MSDO), Females [1]: poor

CC(=O)c1oc2ccccc2c1C [Nerolione, 1-(3-bethyl-2-benzofuranyl)-ethanone]
Magnitude of Reduction of Intensity of Male Stress-Derived Odor (MSDO), Males [1]: good
Magnitude of Reduction of Intensity of Male Stress-Derived Odor (MSDO), Females [1]: poor

CCC(C)(O)CCCC(C)C (centres unmarked) [Tetrahydro Linalool, 3,7-Dimethyloctan-3-ol]
Magnitude of Reduction of Intensity of Male Stress-Derived Odor (MSDO), Males [1]: best
Magnitude of Reduction of Intensity of Male Stress-Derived Odor (MSDO), Females [1]: poor

CC(O)C(C)CC1C(C)CCCC1(C)C (centres unmarked) [Timbranol, Isomethyltetrahydroionol]
Magnitude of Reduction of Intensity of Male Stress-Derived Odor (MSDO), Males [1]: poor
Magnitude of Reduction of Intensity of Male Stress-Derived Odor (MSDO), Females [1]: poor

CC(=O)c1cc2c(cc1C)C(C)(C)C(C)CC2(C)C (centres unmarked) [Tonalide, 7-Acetyl-1,1,3,4,4,6-hexamethyltetralin]
Magnitude of Reduction of Intensity of Male Stress-Derived Odor (MSDO), Males [1]: good
Magnitude of Reduction of Intensity of Male Stress-Derived Odor (MSDO), Females [1]: poor

CC=CC(=O)C1C(C)C=CCC1(C)C (centres unmarked) [Δ-Damascone, 1-(2,6,6-trimethyl-3-cyclohexen-1-yl)-2-buten-1-one]
Magnitude of Reduction of Intensity of Male Stress-Derived Odor (MSDO), Males [1]: best
Magnitude of Reduction of Intensity of Male Stress-Derived Odor (MSDO), Females [1]: good

CC(=O)C=CC1C(C)=CCCC1(C)C (stereo not drawn) [α-ionone, 4-(2,2,6-trimethyl-2cyclohexen-1-yl)-3-buten-2-one]
Magnitude of Reduction of Intensity of Female Stress-Derived Odor (FSDO), Males [2]: good
Magnitude of Reduction of Intensity of Female Stress-Derived Odor (FSDO), Females [2]: good

alpha-n-methylionone [Isoraldeine 70]
Magnitude of Reduction of Intensity of Female Stress-Derived Odor (FSDO), Males [2]: best
Magnitude of Reduction of Intensity of Female Stress-Derived Odor (FSDO), Females [2]: poor

isobornyl cyclohexanol
Magnitude of Reduction of Intensity of Male Stress-Derived Odor (MSDO), Males [1]: good
Magnitude of Reduction of Intensity of Male Stress-Derived Odor (MSDO), Females [1]: poor
